Values of other authors in US8993551B2, “Composition for the regulation of the human immune system and the prevention and treatment of diseases thereof” (priority 2002, dated 2015).
Like-named read-outs stand apart in the source and are kept apart here. Values belong to the compound of their own block, whether it stands above or below them.

Experiments:
[1] = of total dietary amount consumed / of intake, mammals
[2] = test system: LNCaP human prostate cancer cells
[3] = test system: human breast cancer cells
[4] = test system: HT-29 human colon cancer cells
CD4 lymphocyte count = settings: AIDS patients

intestinal absorption [1]: 45-54%
SMILES: CC(C)CCC[C@@H](C)[C@H]1CC[C@H]2[C@@H]3CC=C4C[C@@H](O)CC[C@]4(C)[C@H]3CC[C@]12C [cholesterol]

SMILES: CC[C@H](CC[C@@H](C)[C@H]1CC[C@H]2[C@@H]3CC=C4C[C@@H](O)CC[C@]4(C)[C@H]3CC[C@]12C)C(C)C [beta-sitosterol]
inhibition of prostate cancer cell growth [2]: 24%
increase in cell death ([2]; prostate cancer cells): 400%
inhibition of breast cancer cell growth ([3]; after 3 days): 66%
inhibition of breast cancer cell growth ([3]; after 5 days): 80%
increase in rate of cell death ([3]; breast cancer cells): 600%
intestinal absorption [1]: ~5%
reduction in cell growth [4]: 55%
CD4 lymphocyte count (CD4 lymphocyte count): maintain CD4 lymphocyte count
